Among the data in US9227971B2, “Pyrazolo[1,5-a]pyrimidine compounds as mTOR inhibitors” (Merck Sharp & Dohme Corp., priority 2010, dated 2016) are IC50 values, retold here.

In assay [1] the test system is phosphorylated 4E-BP1 Thr37/46 (p4E-BP1 Thr37/46), mTORC1 activity, PC3 cells. Briefly: mTOR target engagement assay, immunofluorescent cell-based, p4E-BP1 Thr37/46 readout (mTORC1 activity). To be noted: read-out: p4E-BP1 Thr37/46 IC50. In short, it runs like this: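 Seed PC3 cells overnight; treat with compound dilutions for ninety minutes at 37° C; fix with glyoxal and block; stain with anti-p4E-BP1 Thr37/46 overnight at 4° C, then fluorescent secondary; read fluorescence and fit IC50 against DMSO-only controls.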

Assay [2] concerns phosphorylated AKT Ser473 (pAKT S473), mTORC2 activity, PC3 cells. Nature of the assay: mTOR target engagement assay, immunofluorescent cell-based, pAKT S473 readout (mTORC2 activity). The essentials: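 After blocking, cells were stained overnight at 4 °C with anti-pAKT S473 antibody, then a fluorescent secondary; inhibition was read as reduced fluorescence intensity.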
The mark [3] stands for this setting: Homo sapiens, PC-3, Table 6-1, PC3 cells.
The mark [4] stands for this setting: Homo sapiens, PC-3, PC3 cells, compound treatment ninety minutes at 37° C.
Where [5] appears, read: Homo sapiens, PC-3, Table 3-1, PC3 cells.

SMILES strings stand for the structures. Where two headings read alike, the source gives them in different places.

Regarding `CS(=O)(=O)c1c(C2CC3COCC(C2)N3C(=O)c2nc[nH]n2)nc2c(-c3ccc(-c4ccccc4)nc3)cnn2c1N` (single isomer, unassigned) [Compound 8.30, (7-(7-amino-6-(methylsulfonyl)-3-(6-phenylpyridin-3-yl)pyrazolo[1,5-a]pyrimidin-5-yl)-3-oxa-9-azabicyclo[3.3.1]nonan-9-yl)(1H-1,2,4-triazol-3-yl)methanone], the IC50 in assay [1] (PC3 cells) and in assay [2] (PC3 cells) was 1 to 100 nM in each case.

As to `CC(=O)c1c([C@@H]2C[C@H]3CC[C@@H](C2)N3C(=O)[C@@H](C)O)nc2c(-c3ccc(-c4ncc[nH]4)nc3)cnn2c1N` [Compound 6.12, (R)-1-((1R,3S,5S)-3-(3-(6-(1H-imidazol-2-yl)pyridin-3-yl)-6-acetyl-7-aminopyrazolo[1,5-a]pyrimidin-5-yl)-8-azabicyclo[3.2.1]octan-8-yl)-2-hydroxypropan-1-one], the IC50 in assay [1] (setting [3]) and in assay [2] (setting [3]) was 1 to 100 nM each time.

In the case of `CC(=O)c1c([C@@H]2C[C@H]3CC[C@@H](C2)N3C(=O)c2nnc[nH]2)nc2c(-c3ccc(N)nc3)cnn2c1N` [Compound 8.48, 1-(5-((1R,3s,5S)-8-(4H-1,2,4-triazole-3-carbonyl)-8-azabicyclo[3.2.1]octan-3-yl)-7-amino-3-(6-aminopyridin-3-yl)pyrazolo[1,5-a]pyrimidin-6-yl)ethanone], the IC50 in assay [1] (Homo sapiens, PC-3, PC3 cells) was 1 to 100 nM; in assay [2] (Homo sapiens, PC-3, PC3 cells), 1 to 100 nM.

On to `CS(=O)(=O)c1c([C@@H]2C[C@H]3CC[C@@H](C2)N3/C(N)=N/C#N)nc2c(-c3ccc(-c4ccccc4)nc3)cnn2c1N` [Compound 8.87, (1R,3s,5S,E)-3-(7-amino-6-(methylsulfonyl)-3-(6-phenylpyridin-3-yl)pyrazolo[1,5-a]pyrimidin-5-yl)-N′-cyano-8-azabicyclo[3.2.1]octane-8-carboximidamide], for which the IC50 is 100 to 1000 nM in assay [1] (Homo sapiens, PC-3, PC3 cells) and 1 to 100 nM in assay [2] (Homo sapiens, PC-3, PC3 cells).

As for `CC(=O)c1c([C@@H]2C[C@H]3CC[C@@H](C2)N3C(=O)c2nnc[nH]2)nc2c(-c3ccc(-c4ccccn4)nc3)cnn2c1N` [Compound 1.1.146, 1-(3-(2,2′-bipyridin-5-yl)-5-((1R,3s,5S)-8-(4H-1,2,4-triazole-3-carbonyl)-8-azabicyclo[3.2.1]octan-3-yl)-7-aminopyrazolo[1,5-a]pyrimidin-6-yl)ethanone], the IC50 in assay [1] (setting [4]) and in assay [2] (setting [4]) was 1 to 100 nM each time.

On to `CCc1ccc(-c2cnn3c(N)c(C(C)=O)c([C@@H]4C[C@H]5CC[C@@H](C4)N5C(=O)c4nnc[nH]4)nc23)cn1` [Compound 1.1.99, 1-(5-((1R,3s,5S)-8-(4H-1,2,4-triazole-3-carbonyl)-8-azabicyclo[3.2.1]octan-3-yl)-7-amino-3-(6-ethylpyridin-3-yl)pyrazolo[1,5-a]pyrimidin-6-yl)ethanone], for which the IC50 in assay [1] (setting [4]) and in assay [2] (setting [4]) was 1 to 100 nM throughout.

Consider `Nc1cc([C@@H]2C[C@H]3CC[C@@H](C2)N3)nc2c(-c3ccc(-c4ccccc4)nc3)cnn12` [Compound 2.23, 5-((1R,3s,5S)-8-azabicyclo[3.2.1]octan-3-yl)-3-(6-phenylpyridin-3-yl)pyrazolo[1,5-a]pyrimidin-7-amine], for which the IC50 in assay [1] (setting [4]) and in assay [2] (setting [4]) was 1000 to 10000 nM in each case.

As for `Nc1cc([C@@H]2C[C@H]3CC[C@@H](C2)N3C(=O)CO)nc2c(-c3ccc(-c4ccccc4)nc3)cnn12` [Compound 2.8, 1-((1R,3s,5S)-3-(7-amino-3-(6-phenylpyridin-3-yl)pyrazolo[1,5-a]pyrimidin-5-yl)-8-azabicyclo[3.2.1]octan-8-yl)-2-hydroxyethanone], the results for the IC50 in assay [1] (setting [4]) and in assay [2] (setting [4]) were 1000 to 10000 nM and 100 to 1000 nM, respectively.

For the compound `CC(=O)c1c([C@@H]2C[C@H]3CC[C@@H](C2)N3C(=O)c2cn[nH]c2N)nc2c(-c3ccc(C(C)(C)O)nc3)cnn2c1N` [Compound 7.15, 1-(7-amino-5-((1R,3s,5S)-8-(5-amino-1H-pyrazole-4-carbonyl)-8-azabicyclo[3.2.1]octan-3-yl)-3-(6-(2-hydroxypropan-2-yl)pyridin-3-yl)pyrazolo[1,5-a]pyrimidin-6-yl)ethanone], the IC50 in assay [1] (setting [4]) and in assay [2] (setting [4]) was 100 to 1000 nM each time.

For the compound `CS(=O)(=O)c1c([C@@H]2C[C@H]3CC[C@@H](C2)N3C(N)=O)nc2c(-c3ccc(-c4ccccc4)nc3)cnn2c1N` [Compound 3.10, (1R,3s,5S)-3-(7-amino-6-(methylsulfonyl)-3-(6-phenylpyridin-3-yl)pyrazolo[1,5-a]pyrimidin-5-yl)-8-azabicyclo[3.2.1]octane-8-carboxamide], the IC50 in assay [1] (setting [5]) and in assay [2] (setting [5]) was 1 to 100 nM each time.

With `CC(=O)c1c([C@@H]2C[C@H]3CC[C@@H](C2)N3C(=O)c2nnc[nH]2)nc2c(-c3ccc(-c4ccc(F)cc4F)nc3)cnn2c1N` [Compound 1.1.148, 1-(5-((1R,3s,5S)-8-(4H-1,2,4-triazole-3-carbonyl)-8-azabicyclo[3.2.1]octan-3-yl)-7-amino-3-(6-(2,4-difluorophenyl)pyridin-3-yl)pyrazolo[1,5-a]pyrimidin-6-yl)ethanone], the IC50 in assay [1] (setting [4]) and in assay [2] (setting [4]) was 1 to 100 nM in each case.

On to `CS(=O)(=O)c1c([C@@H]2C[C@H]3CC[C@@H](C2)N3C(=O)c2nnn[nH]2)nc2c(-c3ccc(-c4ccccc4)nc3)cnn2c1N` [Compound 3.5, ((1R,3s,5S)-3-(7-amino-6-(methylsulfonyl)-3-(6-phenylpyridin-3-yl)pyrazolo[1,5-a]pyrimidin-5-yl)-8-azabicyclo[3.2.1]octan-8-yl)(1H-tetrazol-5-yl)methanone], for which the results for the IC50 in assay [1] (setting [5]) and in assay [2] (setting [5]) were over 10000 nM and 1000 to 10000 nM, respectively.

Consider `CC(=O)c1c([C@@H]2C[C@H]3CC[C@@H](C2)N3C(=O)c2nnc(N)[nH]2)nc2c(-c3ccc(C(C)(C)O)nc3)cnn2c1N` [Compound 7.13, 1-(7-amino-5-((1R,3s,5S)-8-(5-amino-4H-1,2,4-triazole-3-carbonyl)-8-azabicyclo[3.2.1]octan-3-yl)-3-(6-(2-hydroxypropan-2-yl)pyridin-3-yl)pyrazolo[1,5-a]pyrimidin-6-yl)ethanone], for which the IC50 in assay [1] (setting [4]) and in assay [2] (setting [4]) was 100 to 1000 nM in each case.

As to `CS(=O)(=O)c1c([C@@H]2C[C@H]3CC[C@@H](C2)N3C(=O)NC2CC2)nc2c(-c3ccc(-c4ccccc4)nc3)cnn2c1N` [Compound 3.11, (1R,3s,5S)-3-(7-amino-6-(methylsulfonyl)-3-(6-phenylpyridin-3-yl)pyrazolo[1,5-a]pyrimidin-5-yl)-N-cyclopropyl-8-azabicyclo[3.2.1]octane-8-carboxamide], the IC50 was in the range of 1000 to 10000 nM in assay [1] (setting [5]) and 100 to 1000 nM in assay [2] (setting [5]).

Take `CCOc1ccc(-c2ccc(-c3cnn4c(N)c(S(C)(=O)=O)c([C@@H]5C[C@H]6CC[C@@H](C5)N6C(=O)c5nnc[nH]5)nc34)cn2)cc1` [Compound 3.60, ((1R,3s,5S)-3-(7-amino-3-(6-(4-ethoxyphenyl)pyridin-3-yl)-6-(methylsulfonyl)pyrazolo[1,5-a]pyrimidin-5-yl)-8-azabicyclo[3.2.1]octan-8-yl)(4H-1,2,4-triazol-3-yl)methanone]: the IC50 in assay [1] (setting [5]) and in assay [2] (setting [5]) was 1 to 100 nM throughout.

Take `CS(=O)(=O)c1c([C@@H]2C[C@H]3CC[C@@H](C2)N3C(=O)[C@@H]2CCCN2)nc2c(-c3ccc(-c4ccccc4)nc3)cnn2c1N` [Compound 3.206, ((1R,3R,5S)-3-(7-amino-6-(methylsulfonyl)-3-(6-phenylpyridin-3-yl)pyrazolo[1,5-a]pyrimidin-5-yl)-8-azabicyclo[3.2.1]octan-8-yl)((S)-pyrrolidin-2-yl)methanone]: the IC50 in assay [1] (setting [5]) and in assay [2] (setting [5]) was 1000 to 10000 nM in each case.

For the compound `CC(=O)c1c([C@@H]2C[C@H]3CC[C@@H](C2)N3C(=O)CO)nc2c(-c3ccc(C(O)C(F)(F)F)nc3)cnn2c1N` (stereo partly drawn) [Compound 7.67, 1-((1R,3s,5S)-3-(6-acetyl-7-amino-3-(6-(2,2,2-trifluoro-1-hydroxyethyl)pyridin-3-yl)pyrazolo[1,5-a]pyrimidin-5-yl)-8-azabicyclo[3.2.1]octan-8-yl)-2-hydroxyethanone], the IC50 in assay [1] (Homo sapiens, PC-3, PC3 cells) lay in the range of 100 to 1000 nM; in assay [2] (Homo sapiens, PC-3, PC3 cells), 1000 to 10000 nM.

Consider `CS(=O)(=O)c1c([C@H]2CC3CC[C@H](C2)N3C(=O)c2nnc[nH]2)nc2c(-c3cnc4c(c3)CCC4O)cnn2c1N` (stereo partly drawn) [Compound 7.62, ((1R,3s,5S)-3-(7-amino-3-(7-hydroxy-6,7-dihydro-5H-cyclopenta[b]pyridin-3-yl)-6-(methylsulfonyl)pyrazolo [1,5-a]pyrimidin-5-yl)-8-azabicyclo[3.2.1]octan-8-yl)(4H-1,2,4-triazol-3-yl)methanone], for which the IC50 in assay [1] (Homo sapiens, PC-3, PC3 cells) was 1000 to 10000 nM; in assay [2] (Homo sapiens, PC-3, PC3 cells), 1000 to 10000 nM.

Regarding `CS(=O)(=O)c1c([C@@H]2C[C@H]3CC[C@@H](C2)N3c2nnc[nH]2)nc2c(-c3ccc(-c4ccccc4)nc3)cnn2c1N` [Compound 3.21, 5-((1R,3s,5S)-8-(4H-1,2,4-triazol-3-yl)-8-azabicyclo[3.2.1]octan-3-yl)-6-(methylsulfonyl)-3-(6-phenylpyridin-3-yl)pyrazolo[1,5-a]pyrimidin-7-amine], the IC50 is 1000 to 10000 nM in assay [1] (Table 3-1, PC3 cells) and 1000 to 10000 nM in assay [2] (Table 3-1, PC3 cells).
